Laboratory results taken from paper PMC6544338, “Comparative biophysical characterization: A screening tool for acetylcholinesterase inhibitors” (PLoS ONE, 2019).
Where a name gives a salt, the structure may show the parent alone. Read-outs that look alike come from different tables or passages of the source.

Key:
[1] = target: T1, immobilized AChE (Electrophorus electricus, UniProt O42275); experiment: biochemical; type: binding; settings: for Kd / Ka1 / Kd1: 25°C
T1 construct: purchased Sigma (St. Louis, MO, USA)
Protocol: (§1) The protocol was followed with some modifications for enzyme immobilization, scouting and screening. SPR interactions were performed using a Biacore X100 optical biosensor (GE Healthcare Life Sciences, Bangalore, India) at 25°C. SPR analysis was carried out in PBS (200 mM, pH 7.7) from the analyte stock solutions, working solutions were diluted before passing on to the sensor surface. Data collection was done with the help of Biacore control software ver 2.0.2 Sets of experiments were carried out by monitoring change in the refractive index as a function of time under constant flow conditions. The relative amount of inhibitor bound to the AChE was determined by measuring the net increase in the refractive index over time compared to buffer as a control. During each run, there is an inline subtraction of the reference surface. Change is reported regarding response units (RU). The surface was washed with 5 cycles of running buffer (PBS) before next analytes.
(§2) As per pH scouting studies, AChE enzyme (100μg) was dissolved in 100 mM sodium acetate buffer pH 4.5 and was immobilized to the CM5 sensor chip by using the amine coupling method. The flow rate was kept constant during immobilization at 10 μlmin^-1, the surface of flow cell was activated by 1:1 mixture of 100 mM EDC and 100 mM NHS (both dissolved in water) for 7 min. AChE was injected for 7 min, and residual activated carboxymethyl groups were blocked on the sensor surface by 7 min injection of 1M ethanolamine, pH 8.5. In this particular study, flow cell 1 was blank immobilized (without protein) and used as a reference. Inline and double referencing was done for the buffer RU compensation.
(§3) Here the model describes this competitive situation and returns two sets of rate constants, one for each reaction taking into consideration two different analytes. The same buffer was used as running buffer. The constant flow rate was maintained throughout the kinetics (45 μlmin^-1), contact time and dissociation time was kept at 120 second (s). 10 mM glycine pH 3.0 for the time period of 30 s was used for regeneration. The experiments were carried at different concentrations of inhibitors.
(§4) The analysis of data was carried out with X100 evaluation software ver 2.0.2 and fitted to two state fit for individual molecules and for competitive experiments a heterogeneous analyte binding model.

[2] = target: T1, immobilized AChE; experiment: biochemical; type: binding; settings: for Kd: read-out: Molecule 2 KD
Protocol: as §1, §2, §3, §4
Likewise, competitive experiments between different pairs was run by mixing 1:1 ratio of molecules and was fit to heterogeneous analyte model were studied. These experiments are helpful for determining the kinetics of a small molecule analyte in competition with other. Response contributions from both analytes are taken into account by considering molecular weight and concentrations of analytes. For competition binding experiments, pairing was done based on substrate-inhibitor and inhibitor-inhibitor interactions. […] Finally, naturally occurring crocin was also tested due to reports in the literature as a brain tonic for the Alzheimer's.

[3] = target: T2, AChE (Electrophorus electricus, UniProt O42275); experiment: Far-UV circular dichroism of AChE with small molecules (secondary structure composition); settings: for change in secondary structure of AChE compared to control enzyme: CD, far-UV; for Turns of AChE in presence of the molecule / α helix of AChE in presence of the molecule / Random of AChE in presence of the molecule / β sheets of AChE in presence of the molecule: single molecule; for Turns of AChE in presence of the molecule: AChE alone 0; for α helix of AChE in presence of the molecule: AChE alone 3.6±0.012; for Random of AChE in presence of the molecule: AChE alone 44.2±0.46; for β sheets of AChE in presence of the molecule: AChE alone 52.3±0.6
T2 construct: purchased Sigma (St. Louis, MO, USA)
Protocol: Protein solutions 0.5 milligram per milliliter (mgml^-1) was prepared in 10 mM PBS at pH 7.7. Scans were performed at room temperature using 0.1 cm path length quartz cuvette with 8 s differential integration time at a scan rate of 100 nano meter per minute (nm min^-1). The CD spectrum of AChE enzyme individually and with different small molecules, also in combination was recorded. All spectra resulted from averaging three scans were corrected from the buffer blank. Results were expressed as molar ellipticity (°cm^2 dmol^-1) based on a mean amino acid residue weight (MRW) 110 Da for AChE. The molar ellipticity was determined as [θ obs] = {100 × (MRW) × θobs/cl}, where θ is the observed ellipticity in degrees at a given wavelength, c is the protein concentration in mgml^-1, and l is the path length in cm.
The relative percentages of the secondary structure elements were estimated in triplicates using Manager Suite software.

[4] = target: T2, AChE; experiment: Fluorescence spectral studies of AChE incubated with molecules; settings: excitation 365 nm, control emission maxima […] nm, molecules at IC50 concentration, 10 min
Protocol: The fluorescence intensities were recorded using 0.5 mgml^-1 protein concentration with an excitation wavelength of 365 nm and an emission wavelength of 400–700 nm with slit widths of 20 nm using MY14410002 fluorescence spectrophotometer (Agilent Technologies, USA) at 25°C. Protein solutions of 0.5 mgml^-1 were prepared in 10 mM PBS at pH 7.7. Scans were performed at room temperature using a 1 cm path length quartz cuvette with 1 s differential integration time at a scan rate of 600 nm min^-1. […] The subsequent changes in fluorescence were measured at this wavelength.
Fig 21 a) Intrinsic fluorescence spectra of the AChE incubated with molecules. […] Scans were performed at 37°C using a 1 cm path length quartz cuvette with 1 s differential integration time at a scan rate of 600 nm min^-1. The excitation wavelength was 365 nm and emission wavelength was in the range of 400–700 nm. b) Intrinsic fluorescence spectra of the AChE incubated with molecules. […] Scans were performed at 37° C using a 1 cm path length quartz cuvette with 1 s differential integration time at a scan rate of 600 nm min^-1. The excitation wavelength was 365 nm and the emission wavelength was in the range of 400–700 nm.

[5] = target: T3, acetylcholinesterase from Electrophorus electricus (Electric eel) (Electrophorus electricus, UniProt O42275); experiment: Inhibition assay for acetylcholinesterase activity (modified Ellman, ATCI/DTNB, 412 nm); type: biochemical
T3 construct: purchased Sigma (St. Louis, MO, USA)
Protocol: The assay was performed with some modifications of Ellman et al (1961). […] The hydrolysis was monitored by the formation of yellow color (5-thio-2-nitrobenzoate anion) and the absorbance was measured at 412 nm by using spectrophotometer (UV-1800, Shimadzu, Japan).
The inhibitory activity assay was carried out with slight modifications. […] The inhibitory percentage of AChE was calculated as follows:
%inhibition = 100[A − B] − [C − D]/[A − B]
A is the OD without test substance, B is the OD without test substance and AChE, C is the OD with the test substance, D is the OD at 412 nm with the test substance and without AChE.
The relative percentage inhibition were estimated in triplicates and values were expressed as mean ± SEM (n = 3).

[6] = affinity fit, read-out: KD Affinity
[7] = two-state model, read-out: KD Kinetics
[8] = pair crocin (molecule 1) and ATCI (molecule 2), 1:1
[9] = pair tannic acid (molecule 1) and ATCI (molecule 2), 1:1

T2 sequence (O42275 24-633): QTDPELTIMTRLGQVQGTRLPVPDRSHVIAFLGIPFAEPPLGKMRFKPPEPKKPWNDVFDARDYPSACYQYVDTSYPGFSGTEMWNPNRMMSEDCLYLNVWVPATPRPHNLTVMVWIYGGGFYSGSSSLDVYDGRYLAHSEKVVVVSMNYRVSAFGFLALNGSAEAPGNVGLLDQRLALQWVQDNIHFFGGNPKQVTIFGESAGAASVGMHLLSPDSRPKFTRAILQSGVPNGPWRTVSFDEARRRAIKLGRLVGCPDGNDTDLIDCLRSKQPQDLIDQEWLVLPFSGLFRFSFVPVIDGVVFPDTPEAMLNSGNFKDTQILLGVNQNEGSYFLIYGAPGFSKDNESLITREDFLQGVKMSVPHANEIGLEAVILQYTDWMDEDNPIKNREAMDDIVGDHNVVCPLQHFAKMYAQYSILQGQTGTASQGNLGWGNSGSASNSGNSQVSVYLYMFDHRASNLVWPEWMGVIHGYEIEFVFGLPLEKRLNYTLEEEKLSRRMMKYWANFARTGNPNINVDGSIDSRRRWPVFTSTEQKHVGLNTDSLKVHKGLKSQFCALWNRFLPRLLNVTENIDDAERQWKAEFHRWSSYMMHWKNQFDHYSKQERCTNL
T1 sequence (O42275 24-633): as above
T3 sequence (O42275 24-633): as above

Structure (SMILES) | Ka2 [1] | Kd [1, 6] [µM] | Ka1 ([1]; two-state model) [M⁻¹ s⁻¹] | Kd1 ([1]; two-state model) [s⁻¹] | Kd [1, 7] [µM] | change in secondary structure of AChE compared to control enzyme [3] | Turns of AChE in presence of the molecule [3] [%] | α helix of AChE in presence of the molecule [3] [%] | Random of AChE in presence of the molecule [3] [%] | β sheets of AChE in presence of the molecule [3] [%] | change in fluorescence emission of AChE compared to control enzyme [4] | IC50 [5] [µM] | Kd2 [1] | other results
CC(=O)SCC[N+](C)(C)C.[I-] [ATCI, acetylthiocholine iodide, reference compound] | 12440 ± 9.6e-05 s⁻¹ | 2510 | 76590 ± 12000 | 0.4167 ± 0.13 | 2.23 | increase in α-helix and a decline in β-sheets | 0 | 5.9±0.035 | 42.8±0.39 | 51.3±0.70 | no change |  |  | Molecule 2 ka2 [2]: 92910 ± 43000 M⁻¹ s⁻¹; Molecule 2 ka2 [2, 8]: 139500 ± 19000 M⁻¹ s⁻¹; Molecule 2 kd2 [2, 8]: 0.06452 ± 0.0034 s⁻¹; Molecule 2 ka2 [2, 9]: 1.529e+06 ± 3.4e+06 M⁻¹ s⁻¹; Kd [2, 9]: 0.00016 µM; Kd [2]: 0.00989 µM
Cn1c(=O)c2c(ncn2C)n(C)c1=O [Caffeine, caffeine, reference compound] |  |  |  |  |  |  |  |  |  |  |  | 380 ± 15 |  | Kd ([1]; KD Affinity, affinity fit): 7700 µM; Kd ([1]; KD Kinetics, two-state model): 17.4 µM
C[N+](C)(C)CCOC(N)=O [Carbachol, carbachol, reference compound] | 0.001509±2.6×10^−4 1/s | 1150 | 101000 ± 9700 | 0.05155 ± 0.0041 | 0.236 | increase in α-helix and a decline in β-sheets | 2.6±0.016 | 4.0±0.02 | 42.4±0.38 | 51.0±0.69 | no change | 210 ± 15 | 0.001298±1.1×10^−4 1/s | 
O.Oc1cc(O)c2c(c1)O[C@H](c1ccc(O)c(O)c1)[C@@H](O)C2 [Catechin hydrate, catechin hydrate] | 0.0158±7.1×10^−4 1/s | 738 | 76.33 ± 3.4 | 0.06336 ± 0.0042 | 173 |  | 0 | 10±0.06 | 41±0.29 | 49±0.67 | redshift |  | 0.004173±1.1×10^−4 1/s | IC50 ([5]; […] ATCI, PBS 200 mM pH 7.7, 37°C, mean ± SEM (n = 3), read-out: IC50): 90 ± 1 µM
O[C@H]1[C@H]2c3cc4c(cc3CN3CCC(=C[C@@H]1O)[C@H]23)OCO4 [Lycorine hydrochloride, lycorine hydrochloride] |  |  | 131.5 ± 6.3 | 0.3564 ± 0.011 |  | increase of α-helix | 0 | 7.2±0.045 | 41.6±0.34 | 51.2±0.72 | increase in the intensity at 415 nm |  | 0.02658 ± 0.0061 s⁻¹ | 
O=c1c(O)c(-c2ccc(O)c(O)c2)oc2cc(O)cc(O)c12 [Quercetin, quercetin] | 0.006822±3.4×10^−4 1/s |  | 117.6 ± 4.3 | 0.05923 ± 0.0028 |  | reduction in α-helix with an increase in β-sheets | 1.0±0.006 | 3.1±0.010 | 42.8±0.39 | 53.2±0.75 | redshift |  | 0.004964±2.1×10^−4 1/s | 
C[C@@H]1O[C@@H](OC[C@H]2O[C@@H](Oc3c(-c4ccc(O)c(O)c4)oc4cc(O)cc(O)c4c3=O)[C@H](O)[C@@H](O)[C@@H]2O)[C@H](O)[C@H](O)[C@H]1O [Rutin hydrate, rutin hydrate] | 0.004468±1.6×10^−4 1/s | 1110 | 11.33 ± 0.25 | 0.04254 ± 0.0013 | 1180 |  | 0 | 8.8±0.056 | 40.7±0.27 | 50.5±0.72 | redshift | 1900 ± 90 | 0.002058±1.6×10^−4 1/s | 
